Measured values reported in ChEMBL document CHEMBL3616391, “Fatty Acid Synthase (FASN) Inhibitors as Potential Treatment for Cancer, Obesity, and Liver Related Disorders” (ACS Med Chem Lett, 2015).

Tests used:
Fatty acid synthase = Fatty acid synthase (Homo sapiens, UniProt P49327); test: Inhibition of fatty acid synthase keto-reductase domain (unknown origin)
A2780 [1] = test: Antiproliferative activity against human A2780 cells in lipid reduced medium in presence of palmitate; type: functional, cell-based
A2780 [2] = test: Antiproliferative activity against human A2780 cells in lipid reduced medium in absence of palmitate; type: functional, cell-based
LNCaP = test: Antiproliferative activity against human LNCAP cells in lipid reduced medium; type: functional, cell-based
PC-3M = test: Antiproliferative activity against human PC3M cells expressing Luc-C6 in lipid reduced medium; type: functional, cell-based

Sequence of Fatty acid synthase (P49327 whole entry, the tested form may be a part): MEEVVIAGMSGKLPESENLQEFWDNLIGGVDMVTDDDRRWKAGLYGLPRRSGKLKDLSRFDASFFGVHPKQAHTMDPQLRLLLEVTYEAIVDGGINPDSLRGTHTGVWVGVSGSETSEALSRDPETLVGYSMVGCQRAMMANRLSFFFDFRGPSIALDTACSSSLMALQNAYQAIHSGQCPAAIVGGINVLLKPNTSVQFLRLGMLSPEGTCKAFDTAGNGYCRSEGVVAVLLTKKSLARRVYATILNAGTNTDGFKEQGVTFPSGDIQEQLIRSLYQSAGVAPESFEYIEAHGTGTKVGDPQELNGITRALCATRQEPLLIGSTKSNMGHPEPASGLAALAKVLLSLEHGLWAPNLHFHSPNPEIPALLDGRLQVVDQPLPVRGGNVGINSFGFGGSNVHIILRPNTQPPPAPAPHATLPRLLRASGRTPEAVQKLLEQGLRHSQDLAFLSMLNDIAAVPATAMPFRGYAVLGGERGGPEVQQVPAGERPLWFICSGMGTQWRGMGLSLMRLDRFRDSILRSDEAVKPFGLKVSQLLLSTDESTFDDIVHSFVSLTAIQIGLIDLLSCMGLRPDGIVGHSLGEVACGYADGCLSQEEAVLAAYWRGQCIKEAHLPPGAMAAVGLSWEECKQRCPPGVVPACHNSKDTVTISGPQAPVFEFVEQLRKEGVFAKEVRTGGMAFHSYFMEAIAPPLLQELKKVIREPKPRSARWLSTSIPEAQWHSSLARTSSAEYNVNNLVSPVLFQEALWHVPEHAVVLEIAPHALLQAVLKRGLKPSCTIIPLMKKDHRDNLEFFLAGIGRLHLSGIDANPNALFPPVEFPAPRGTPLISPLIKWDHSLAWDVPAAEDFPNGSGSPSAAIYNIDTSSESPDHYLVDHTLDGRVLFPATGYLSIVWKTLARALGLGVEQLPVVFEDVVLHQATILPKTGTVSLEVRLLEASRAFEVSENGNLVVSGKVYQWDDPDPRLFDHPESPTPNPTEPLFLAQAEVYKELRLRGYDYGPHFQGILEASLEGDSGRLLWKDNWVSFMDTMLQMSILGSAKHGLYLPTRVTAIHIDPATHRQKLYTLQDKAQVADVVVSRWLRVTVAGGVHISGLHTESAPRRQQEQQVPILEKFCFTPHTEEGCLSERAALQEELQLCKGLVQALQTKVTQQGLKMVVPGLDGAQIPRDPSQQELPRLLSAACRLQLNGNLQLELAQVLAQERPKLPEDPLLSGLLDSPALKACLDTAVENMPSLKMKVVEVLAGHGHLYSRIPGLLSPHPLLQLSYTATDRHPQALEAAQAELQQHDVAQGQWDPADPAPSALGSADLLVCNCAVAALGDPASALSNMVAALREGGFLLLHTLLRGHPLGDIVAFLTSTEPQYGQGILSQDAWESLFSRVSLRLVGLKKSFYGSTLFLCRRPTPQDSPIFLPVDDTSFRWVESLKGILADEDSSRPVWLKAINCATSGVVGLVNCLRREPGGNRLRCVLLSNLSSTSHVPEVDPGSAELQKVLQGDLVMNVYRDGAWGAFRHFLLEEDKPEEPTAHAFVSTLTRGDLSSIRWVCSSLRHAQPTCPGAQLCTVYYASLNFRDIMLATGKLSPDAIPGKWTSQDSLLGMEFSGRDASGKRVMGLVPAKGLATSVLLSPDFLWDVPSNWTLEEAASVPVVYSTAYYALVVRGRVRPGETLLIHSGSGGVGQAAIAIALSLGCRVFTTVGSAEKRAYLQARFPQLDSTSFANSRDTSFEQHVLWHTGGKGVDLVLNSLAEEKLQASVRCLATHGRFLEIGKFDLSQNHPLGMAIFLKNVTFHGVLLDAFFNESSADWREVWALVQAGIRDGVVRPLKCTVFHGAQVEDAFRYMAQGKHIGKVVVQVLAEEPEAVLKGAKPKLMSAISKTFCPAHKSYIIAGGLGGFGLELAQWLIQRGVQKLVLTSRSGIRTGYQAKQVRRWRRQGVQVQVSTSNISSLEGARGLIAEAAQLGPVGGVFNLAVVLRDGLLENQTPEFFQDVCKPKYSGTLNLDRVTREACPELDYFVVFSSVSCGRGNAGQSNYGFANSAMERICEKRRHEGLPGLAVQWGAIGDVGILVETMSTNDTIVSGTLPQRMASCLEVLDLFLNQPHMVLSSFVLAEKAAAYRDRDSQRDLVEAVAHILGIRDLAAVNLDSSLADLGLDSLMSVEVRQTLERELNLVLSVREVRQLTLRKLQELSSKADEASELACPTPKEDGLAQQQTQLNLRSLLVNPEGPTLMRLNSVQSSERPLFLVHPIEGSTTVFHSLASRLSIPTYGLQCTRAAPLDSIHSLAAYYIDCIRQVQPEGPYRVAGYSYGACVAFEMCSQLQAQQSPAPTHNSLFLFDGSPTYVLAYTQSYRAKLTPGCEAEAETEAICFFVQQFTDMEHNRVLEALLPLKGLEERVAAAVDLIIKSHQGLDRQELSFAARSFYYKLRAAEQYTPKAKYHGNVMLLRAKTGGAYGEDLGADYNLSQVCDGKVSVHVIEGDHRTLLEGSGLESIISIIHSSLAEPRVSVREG

Row | SMILES | IC50 (Fatty acid synthase) | IC50 (A2780 [1]) | IC50 (A2780 [2]) | IC50 (LNCaP) | IC50 (PC-3M)
1 | CC1(C)N=C(c2ccc(-c3ccc4cccnc4c3)cc2)N(C[C@@H]2CCN(C(=O)C3CC3)C2)C1=O | 56.2 nM | > 10 µM | 75.9 nM | 219 nM | 53.7 nM
2 | Cn1cc(-c2ccc(-c3ccc(C4=NC(C)(C)C(=O)N4C[C@@H]4CCN(C(=O)C5(O)CC5)C4)c(F)c3)cc2)cn1 | – | > 10 µM | 5.37 nM | – | –
3 | Cn1ncc2cc(-c3ccc(C4=NC(C)(C)C(=O)N4C[C@@H]4CCN(C(=O)C5CC5)C4)c(F)c3)ccc21 | – | – | – | 724 nM | 132 nM
4 | CC1(C)N=C(c2ccc(-c3nc4ccccc4[nH]3)cc2)N(C[C@@H]2CCN(C(=O)C3CC3)C2)C1=O | – | > 10 µM | 9330 nM | – | –
5 | CC1(C)N=C(c2ccc(-c3ccc4[nH]ccc4c3)cc2)N(C[C@@H]2CCN(C(=O)C3CC3)C2)C1=O | – | > 10 µM | 74.1 nM | – | –
6 | CC1(C)N=C(c2ccc(-c3ccc4cccc(F)c4c3)cc2)N(CC2CN(C(=O)C3CC3)C2)C1=O | – | 5.62 µM | 468 nM | 2040 nM | –
